Assay results as given in US10934298B2, “Substituted pyrazolo[1,5-a]pyrimidines for the treatment of medical disorders” (BIAL—BioTech Investments, Inc., priority 2016, dated 2021).

Target: T1, glucocerebrosidase (Gcase) (Homo sapiens, UniProt P04062)
T1 construct: micellar solution containing 10 nM GCase and 100 nM saposin C
T1 sequence (P04062 40-536): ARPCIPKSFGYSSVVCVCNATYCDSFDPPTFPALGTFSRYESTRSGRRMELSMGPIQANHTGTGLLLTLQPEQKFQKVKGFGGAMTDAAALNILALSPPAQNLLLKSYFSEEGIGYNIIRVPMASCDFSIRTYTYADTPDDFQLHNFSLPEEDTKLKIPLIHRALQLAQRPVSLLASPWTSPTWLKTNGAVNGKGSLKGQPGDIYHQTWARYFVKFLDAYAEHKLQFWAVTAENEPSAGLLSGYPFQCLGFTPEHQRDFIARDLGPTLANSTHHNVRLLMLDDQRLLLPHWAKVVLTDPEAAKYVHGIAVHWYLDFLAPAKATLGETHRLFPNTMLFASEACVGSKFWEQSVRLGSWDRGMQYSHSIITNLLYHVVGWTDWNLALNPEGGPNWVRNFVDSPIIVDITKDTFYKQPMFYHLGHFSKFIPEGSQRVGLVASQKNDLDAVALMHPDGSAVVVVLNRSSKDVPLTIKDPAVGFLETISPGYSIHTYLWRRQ
Assay: Glucocerebrosidase (Gcase) activation assay with 4-methylumbelliferyl-beta-D-glucopyranoside substrate, saposin C and phosphatidylserine/triton micelles, fluorescence readout
Format: biochemical
Method in brief: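 Test compounds are first screened at 1.0 and 0.1 μM final, then titrated in 8 points (3-fold from 5 μM) against human GCase with saposin C in phosphatidylserine/triton X-100 micelles at pH 4.7. Reactions run 15 min at room temperature, with fluorescence read at 365/440 nm.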

Percent Gcase Activation, 0.1 μM Test Compound	Percent Gcase Activation, 1 μM Test Compound	SMILES
*** (greater than 20% Gcase activation)	+++ (Gcase activation greater than 60%)	Cc1cc(-c2cncc(Cl)c2)nc2c(C(=O)NC(C)(C)C3CC3)cnn12 [III-292]
*** (greater than 20% Gcase activation)	+++ (Gcase activation greater than 60%)	CCCCO[C@H]1CC[C@H](NC(=O)c2cnn3c(C)cc(-c4cncc(Cl)c4)nc23)CC1 [III-293]
*** (greater than 20% Gcase activation)	+++ (Gcase activation greater than 60%)	Cc1cc(-c2cc(F)c3c(c2)OCO3)nc2c(C(=O)NC(C)C(F)(F)F)cnn12 (centres unmarked) [III-294]
*** (greater than 20% Gcase activation)	+++ (Gcase activation greater than 60%)	Cc1cc(-c2cc(F)c3ocnc3c2)nc2c(C(=O)NC(C)C(F)(F)F)cnn12 (centres unmarked) [III-295]
*** (greater than 20% Gcase activation)	+++ (Gcase activation greater than 60%)	Cc1cc(-c2cc(F)c3ocnc3c2)nc2c(C(=O)N[C@H](C)C(F)(F)F)cnn12 [III-296]
*** (greater than 20% Gcase activation)	+++ (Gcase activation greater than 60%)	Cc1cc(-c2cc(F)c3ocnc3c2)nc2c(C(=O)N[C@@H](C)C(F)(F)F)cnn12 [III-297]
*** (greater than 20% Gcase activation)	+++ (Gcase activation greater than 60%)	COCCOc1ccc(-c2cc(C)n3ncc(C(=O)NC(C)C(F)(F)F)c3n2)cc1F (centres unmarked) [III-298]
*** (greater than 20% Gcase activation)	+++ (Gcase activation greater than 60%)	Cc1cc(-c2ccc(N3CCOCC3)c(F)c2)nc2c(C(=O)NC(C)C(F)(F)F)cnn12 (centres unmarked) [III-299]
*** (greater than 20% Gcase activation)	+++ (Gcase activation greater than 60%)	Cc1cc(-c2sccc2C#N)nc2c(C(=O)NC(C)C(F)(F)F)cnn12 (centres unmarked) [III-300]
*** (greater than 20% Gcase activation)	+++ (Gcase activation greater than 60%)	Cc1cc(-c2sccc2C#N)nc2c(C(=O)N[C@@H](C)C3CC3)cnn12 [III-301]
*** (greater than 20% Gcase activation)	+++ (Gcase activation greater than 60%)	Cc1cc(-c2sccc2C#N)nc2c(C(=O)N[C@H](C)C3CC3)cnn12 [III-302]
*** (greater than 20% Gcase activation)	+++ (Gcase activation greater than 60%)	Cc1cc(-c2ccc3ncn(C)c3c2)nc2c(C(=O)N[C@H](C3CC3)C(F)(F)F)cnn12 [III-305]
*** (greater than 20% Gcase activation)	+++ (Gcase activation greater than 60%)	Cc1cc(-c2ccc3ncn(C)c3c2)nc2c(C(=O)N[C@@H](C3CC3)C(F)(F)F)cnn12 [III-306]
* (less than 10% Gcase activation)	+++ (Gcase activation greater than 60%)	Cc1cc(-c2cccc3nc[nH]c23)nc2c(C(=O)NC(C3CC3)C(F)(F)F)cnn12 (centres unmarked) [III-308]
* (less than 10% Gcase activation)	+ (less than 30% Gcase activation)	Cc1cc(-c2cccc3ncn(C)c23)nc2c(C(=O)NC(C3CC3)C(F)(F)F)cnn12 (centres unmarked) [III-309]
*** (greater than 20% Gcase activation)	+++ (Gcase activation greater than 60%)	Cc1cc(N2CC(C(C)C)OC2=O)nc2c(C(=O)NC(c3ccccc3)C(F)(F)F)cnn12 (centres unmarked) [III-313]
*** (greater than 20% Gcase activation)	+++ (Gcase activation greater than 60%)	Cc1cc(N2C[C@H](c3ccccc3)OC2=O)nc2c(C(=O)NC(C3CC3)C(F)(F)F)cnn12 (some centres unmarked) [III-314]
*** (greater than 20% Gcase activation)	+++ (Gcase activation greater than 60%)	Cc1cc(N2C[C@@H](c3ccccc3)OC2=O)nc2c(C(=O)NC(C3CC3)C(F)(F)F)cnn12 (some centres unmarked) [III-315]
*** (greater than 20% Gcase activation)	+++ (Gcase activation greater than 60%)	Cc1cc(N2CC(C(C)C)NC2=O)nc2c(C(=O)NC(C3CC3)C(F)(F)F)cnn12 (centres unmarked) [III-320]
*** (greater than 20% Gcase activation)	+++ (Gcase activation greater than 60%)	Cc1nc2cc(-c3cc(C)n4ncc(C(=O)N[C@@H](C)C5CC5)c4n3)ccc2o1 [III-321]
*** (greater than 20% Gcase activation)	+++ (Gcase activation greater than 60%)	Cc1cc(C2=CC(C)(C)CCO2)nc2c(C(=O)NC(C3CC3)C(F)(F)F)cnn12 (centres unmarked) [III-322]
* (less than 10% Gcase activation)	+ (less than 30% Gcase activation)	Cc1cc(-c2cccnn2)nc2c(C(=O)NC(C3CC3)C(F)(F)F)cnn12 (centres unmarked) [III-324]
* (less than 10% Gcase activation)	+ (less than 30% Gcase activation)	Cc1cc(-c2ccnnc2)nc2c(C(=O)NC(C3CC3)C(F)(F)F)cnn12 (centres unmarked) [III-325]
* (less than 10% Gcase activation)	+++ (Gcase activation greater than 60%)	Cc1cc(N2CCN(C(C)C)C2=O)nc2c(C(=O)N[C@@H](C3CC3)C(F)(F)F)cnn12 [III-326]

SMILES	Percent Gcase Activation, 0.1 μM Test Compound	Percent Gcase Activation, 1 μM Test Compound
Cc1cc(-c2ccc3c(c2)ncn3C)nc2c(C(=O)NC(C3CC3)C(F)(F)F)cnn12 (centres unmarked) [III-303]	** (Gcase activation in the range of 10% up to 20%)	+ (less than 30% Gcase activation)
Cc1cc(-c2ccc3ncn(C)c3c2)nc2c(C(=O)NC(C3CC3)C(F)(F)F)cnn12 (centres unmarked) [III-304]	** (Gcase activation in the range of 10% up to 20%)	+++ (Gcase activation greater than 60%)
Cc1cc(-c2ccc3nc[nH]c3c2)nc2c(C(=O)NC(C3CC3)C(F)(F)F)cnn12 (centres unmarked) [III-307]	*** (greater than 20% Gcase activation)	++ (Gcase activation in the range of 30% up to 60%)
Cc1cc(-c2cccc3c2ncn3C)nc2c(C(=O)NC(C3CC3)C(F)(F)F)cnn12 (centres unmarked) [III-310]	** (Gcase activation in the range of 10% up to 20%)	+++ (Gcase activation greater than 60%)
Cc1cc(-c2nc3ccccc3[nH]2)nc2c(C(=O)NC(C3CC3)C(F)(F)F)cnn12 (centres unmarked) [III-311]	* (less than 10% Gcase activation)	++ (Gcase activation in the range of 30% up to 60%)
Cc1cc(-c2nc3ccccc3n2C)nc2c(C(=O)NC(C3CC3)C(F)(F)F)cnn12 (centres unmarked) [III-312]	** (Gcase activation in the range of 10% up to 20%)	++ (Gcase activation in the range of 30% up to 60%)
Cc1cc(N2CC(C(C)C)OC2=O)nc2c(C(=O)NC(C3CC3)C(F)(F)F)cnn12 (centres unmarked) [III-316]	** (Gcase activation in the range of 10% up to 20%)	+++ (Gcase activation greater than 60%)
Cc1cc(N2CC(C(C)C)OC2=O)nc2c(C(=O)N[C@H](C3CC3)C(F)(F)F)cnn12 (some centres unmarked) [III-317]	** (Gcase activation in the range of 10% up to 20%)	+++ (Gcase activation greater than 60%)
Cc1cc(N2CC(C(C)C)OC2=O)nc2c(C(=O)N[C@@H](C3CC3)C(F)(F)F)cnn12 (some centres unmarked) [III-318]	** (Gcase activation in the range of 10% up to 20%)	+++ (Gcase activation greater than 60%)
Cc1cc(N2CC(C)(C)NC2=O)nc2c(C(=O)NC(C3CC3)C(F)(F)F)cnn12 (centres unmarked) [III-319]	** (Gcase activation in the range of 10% up to 20%)	+++ (Gcase activation greater than 60%)
Cc1cc(C2CC(C)(C)CCO2)nc2c(C(=O)NC(C3CC3)C(F)(F)F)cnn12 (centres unmarked) [III-323]	** (Gcase activation in the range of 10% up to 20%)	+++ (Gcase activation greater than 60%)
Cc1cc(N2CCN(C(C)C)C2=O)nc2c(C(=O)N[C@H](C3CC3)C(F)(F)F)cnn12 [III-327]	** (Gcase activation in the range of 10% up to 20%)	+++ (Gcase activation greater than 60%)
Cc1cc(N2CCC(C)(C)C2=O)nc2c(C(=O)NC(C3CC3)C(F)(F)F)cnn12 (centres unmarked) [III-328]	** (Gcase activation in the range of 10% up to 20%)	+++ (Gcase activation greater than 60%)
